One data set concerns M. abscessus infection. The conditions noted are these: mouse model of M. abscessus infection, intrapulmonary delivery; cited from earlier work.
The test system of a further data set is mmpL3. The conditions noted are these: in both Mabs and Mtb; cited from earlier work.
Details of data set [1]: species or system mice. Conditions: mouse, in vivo.
Data set [2] concerns CYP2B6, CYP2C8, CYP2C9, CYP2C19, CYP2D6, CYP3A4. Briefly: CYP inhibition, in vitro panel of six common isoforms. It counts as biochemical. The conditions noted are these: human.
Data set [3] can be described thus: Cytotoxicity towards HepG2 cell line. It counts as cell-based. Conditions: human, HepG2 cells.
The test system of a further data set is Mabs. Conditions: for 3 days; cited from earlier work.
The next data set addresses T1, CYP2B6 (Homo sapiens, UniProt P20813).
T1 sequence (P20813 1-491): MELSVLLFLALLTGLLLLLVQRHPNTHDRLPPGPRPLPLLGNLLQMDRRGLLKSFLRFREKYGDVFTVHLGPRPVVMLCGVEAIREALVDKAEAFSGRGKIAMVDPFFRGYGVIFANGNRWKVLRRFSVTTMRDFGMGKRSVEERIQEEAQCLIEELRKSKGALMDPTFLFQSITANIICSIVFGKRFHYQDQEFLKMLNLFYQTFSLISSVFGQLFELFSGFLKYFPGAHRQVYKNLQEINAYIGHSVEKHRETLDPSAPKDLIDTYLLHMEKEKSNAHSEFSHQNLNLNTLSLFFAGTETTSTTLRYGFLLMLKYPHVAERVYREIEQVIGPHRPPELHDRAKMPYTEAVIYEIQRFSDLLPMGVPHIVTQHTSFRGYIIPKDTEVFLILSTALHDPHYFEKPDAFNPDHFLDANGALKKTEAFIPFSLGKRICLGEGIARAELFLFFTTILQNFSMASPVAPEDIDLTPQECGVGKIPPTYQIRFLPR
Briefly: CYP inhibition, CYP2B6. It counts as biochemical.

Data set [4] concerns Mycobacterium avium complex. Nature of the data set: MIC against Mycobacterium avium complex. It counts as cell-based. The conditions noted are these: MAC; listed as CRS400393.
For another data set, the target named is CYP3A4 (Homo sapiens, UniProt P08684). Nature of the data set: CYP inhibition, CYP3A4. It counts as biochemical.
Chain of CYP3A4 (P08684 whole entry): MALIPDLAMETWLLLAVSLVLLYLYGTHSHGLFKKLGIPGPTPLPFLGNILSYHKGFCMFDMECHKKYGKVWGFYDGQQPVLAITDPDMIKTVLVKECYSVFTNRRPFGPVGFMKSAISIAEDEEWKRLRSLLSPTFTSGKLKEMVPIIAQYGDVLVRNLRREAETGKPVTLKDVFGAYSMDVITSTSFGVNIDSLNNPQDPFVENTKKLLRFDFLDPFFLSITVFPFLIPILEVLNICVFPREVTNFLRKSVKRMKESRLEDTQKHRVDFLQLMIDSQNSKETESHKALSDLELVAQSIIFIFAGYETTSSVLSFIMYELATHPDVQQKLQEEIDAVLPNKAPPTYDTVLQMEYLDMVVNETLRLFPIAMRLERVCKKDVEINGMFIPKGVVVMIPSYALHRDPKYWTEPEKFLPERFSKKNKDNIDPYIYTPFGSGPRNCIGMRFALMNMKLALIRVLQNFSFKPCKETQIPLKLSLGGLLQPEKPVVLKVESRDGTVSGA

A value given as a limit tells only on which side of the number the result lay.

For the compound `CC12CC3CC(C)(C1)CC(C(=O)Nc1nc4ccc(OC(F)(F)F)cc4s1)(C3)C2` [CRS400226], the in vivo efficacy result in the data set on M. abscessus infection was “demonstrated in vivo efficacy”.
In the case of `CC1CC(C(=O)Nc2nc3c(F)cc(F)cc3s2)CC(C)(C)C1` (stereo not drawn) [Compound 18], in the data set with mmpL3, the “effect on transfer of mycolic acids to cell envelope acceptors” value was “affect the transfer of mycolic acids”. For the same compound, the “single dose toxicity observation” value in [1] is on record as “All mice appeared normal with no abnormal behavior observed”.
As usually defined, the IC50 is the point on the concentration scale where inhibition reaches its midpoint. Read a low IC50 as inhibition by little substance. Consider `CC1CC(C(=O)Nc2nc3ccc(OC(F)(F)F)cc3s2)CC(C)(C)C1` (stereo not drawn) [Compound 32], for which the figures for the IC50 in data set [2] and in [3] were greater than 20 µM and greater than 100 µM, respectively. The “effect on transfer of mycolic acids to cell envelope acceptors” value with mmpL3 is listed as “affect the transfer of mycolic acids”.
One may read the inhibition as the change of the read-out against control, counted positive when it falls. As to `CC12CCCC(C(=O)Nc3nc4cc(Cl)cc(Cl)c4s3)(CCC1)C2` [Compound 43], the “time kill: effect against Mabs” value in the data set on Mabs was “bacteriostatic”. Further, the inhibition at 10 µM against CYP2B6 and against CYP3A4 was no more than 50% in each case. The “MIC against Mycobacterium avium complex” value in data set [4] lay in the range of 1 to 2 µg/mL.
Turning to `CC12CCCC(C(=O)Nc3nc4ccc(OC(F)(F)F)cc4s3)(CCC1)C2` [Compound 52], the inhibition at 10 µM against CYP2B6 and against CYP3A4 was no more than 50% throughout.

Source of the values: paper PMC6263154 (Bioorganic & medicinal chemistry letters, 2018).
